Reference: patent US20250276993A1, “PSEUDO-DISACCHARIDE COMPOUNDS” (UNIVERSITEIT LEIDEN, priority 2022, published 2025)

Columns and labels:
[1] = biological target: T1, rHPSE (Homo sapiens, UniProt Q9Y251); test: in-gel competitive ABPP, recombinant HPSE; assay type: biochemical; conditions: for IC50: apparent IC50, in-gel competitive ABPP-based assay, read-out: In vitro IC50 rHPSE
T1 sequence (Q9Y251 36-109 limits assumed): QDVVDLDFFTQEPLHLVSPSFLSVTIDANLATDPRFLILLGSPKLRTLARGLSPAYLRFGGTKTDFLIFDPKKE
T1 sequence (Q9Y251 158-543 limits assumed): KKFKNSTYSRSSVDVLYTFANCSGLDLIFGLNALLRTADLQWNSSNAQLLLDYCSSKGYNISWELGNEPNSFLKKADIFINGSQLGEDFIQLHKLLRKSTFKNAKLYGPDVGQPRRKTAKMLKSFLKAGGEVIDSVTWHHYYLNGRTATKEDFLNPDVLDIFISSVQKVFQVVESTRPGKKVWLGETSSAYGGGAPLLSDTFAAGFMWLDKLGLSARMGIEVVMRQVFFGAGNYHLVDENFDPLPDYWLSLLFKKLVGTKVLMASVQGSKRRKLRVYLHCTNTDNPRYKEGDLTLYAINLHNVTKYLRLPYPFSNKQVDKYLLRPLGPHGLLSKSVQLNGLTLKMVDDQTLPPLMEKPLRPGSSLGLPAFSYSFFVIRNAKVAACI
Description: (§1) ABP labelling reactions were carried out in Mcllvaine buffer (pH 5.5), 300 mM NaCl. For recombinant proteins 200 fmol of EcGH2, BpHep, AcGH79, HPSE or proHPSE was used (20 nM in 10 μl final reaction volume). For labeling cell lysates, 4-20 μg total protein was used. Labeling reactions were initiated by the addition of ABP compounds 7, 8 or 9 to a final concentration of 100 nM (unless otherwise specified), before incubation for 30 min at 37° C. with shaking. Following labeling, samples were denatured by boiling with Laemmli buffer for 5 min and resolved by SDS-PAGE. Gels were scanned using Typhoon-5 laser scanner platform (Cytiva), using the λEX 635 nm laser and 670BP30 emission filter. For competitive ABPP (cABPP) experiments, protein mixtures were preincubated with inhibitor (or buffer only control) for 1 h at 37° C. with shaking, before the addition of 7 to a final concentration of 100 nM, and subsequent incubation for 30 min at 37° C. with shaking. SDS-PAGE and analysis steps were carried out as above. For quantitative measurements, fluorescently labeled band intensities were calculated using Imagequant (Cytiva), and normalized to the corresponding band in the inhibitor free control lane. cABPP plots were prepared and analyzed using SigmaPlot 14.0 (Systat).
(§2) Competitive activity of compounds 2, 12 and 13 were investigated using cABPP Assay 2.
To gain insight into HPSE structure-activity relationships, apparent HPSE inhibition was tested for cyclitol 12, its disaccharidic analogue 13 and parent HPSE inhibitor 2 (FIG. 7a). […] Conversely, 13 could inactivate rHPSE down to 2 μM inhibitor concentration similar to 2.

[2] = biological target: T2, HPSE (platelet) (Homo sapiens, UniProt Q9Y251); test: cABPP Assay 2, platelet lysates, HPSE; assay type: biochemical; conditions: for IC50: apparent IC50, in-gel competitive ABPP-based assay, platelet lysate, read-out: In vitro IC50 HPSE (platelet); for inhibitor concentration down to which HPSE signal is abrogated: platelet lysates, preincubation with inhibitor
T2 construct: endogenous in cells; host or cells: human platelet lysates
T2 sequence (Q9Y251 158-543 limits assumed): T1 sequence (Q9Y251 158-543 limits assumed)
T2 sequence (Q9Y251 36-109 limits assumed): T1 sequence (Q9Y251 36-109 limits assumed)
Description: (§3) For further competitive ABPP studies, a working protein mixture was prepared by mixing the platelet lysates (87.5 μL), buffer (pH 5.0, 150 mM, 157.5 μL) and 3 M NaCl solution (35 μL). The enzymatic reactions were carried out at a constant concentration of read-out 7 (100 nM, final). For each inhibitor 2, 12 and 13, triplicate sets of ten 0.5 mL low protein binding Eppendorf tubes were prepared. Working solutions of each inhibitor (1% DMSO (w/v), 5 μL) in a range of ten concentrations (100, 50, 25, 12.5, 6.3, 3.1, 1.6, 0.8, 0.4, 0 μM) were prepared with MilliQ water and kept on ice. The working protein mixture (8 μL) was added in each protein low binding 0.5 mL Eppendorf tube, and 1 μL of inhibitor solution was added while on ice.
(§4) Further cABPP studies were undertaken using platelet lysates to provide a more physiologically realistic environment. Platelet lysates contain complex mixtures of overlapping enzyme activities, including both endo- and exo-β-glucuronidases HPSE and GUSB respectively, thus provide a challenging environment to test inhibitor specificity.

[3] = biological target: T3, GUSB (Homo sapiens, UniProt P08236); test: cABPP Assay 2, platelet lysates, GUSB; assay type: biochemical; conditions: preincubation with inhibitor
T3 construct: Platelet lysates contain complex mixtures of overlapping enzyme activities, including both endo- and exo-β-glucuronidases HPSE and GUSB; endogenous in cells; host or cells: human platelet lysates
T3 sequence (P08236 23-651): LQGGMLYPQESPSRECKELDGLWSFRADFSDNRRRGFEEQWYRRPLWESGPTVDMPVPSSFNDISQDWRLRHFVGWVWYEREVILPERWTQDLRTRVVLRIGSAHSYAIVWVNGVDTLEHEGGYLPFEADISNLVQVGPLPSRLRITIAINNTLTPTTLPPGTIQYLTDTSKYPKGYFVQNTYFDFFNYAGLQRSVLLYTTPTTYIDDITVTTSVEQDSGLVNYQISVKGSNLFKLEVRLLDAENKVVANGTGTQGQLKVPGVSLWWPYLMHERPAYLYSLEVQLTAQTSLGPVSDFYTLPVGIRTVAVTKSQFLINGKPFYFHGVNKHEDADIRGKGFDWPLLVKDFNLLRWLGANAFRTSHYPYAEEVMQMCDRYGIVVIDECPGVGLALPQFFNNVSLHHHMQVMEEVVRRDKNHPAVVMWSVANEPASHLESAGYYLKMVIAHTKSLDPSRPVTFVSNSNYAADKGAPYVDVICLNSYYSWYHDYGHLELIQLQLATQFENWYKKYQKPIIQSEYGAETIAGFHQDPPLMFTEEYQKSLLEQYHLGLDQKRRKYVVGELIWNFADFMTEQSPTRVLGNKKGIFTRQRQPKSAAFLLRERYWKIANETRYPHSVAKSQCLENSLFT
Description: as §3, §4

[4] = biological target: T4, HPSE (Homo sapiens, UniProt Q9Y251); test: fluorescent ABP labelling of whole cell lysates; assay type: biochemical
T4 construct: fluorescent ABPs 7, 8 and 9 were applied to whole cell lysates from a panel of human cancer cell lines; endogenous in cells; host or cells: U87, PANC1, SKBR3, MDA-MB-231, HT1080, platelet lysates
T4 sequence (Q9Y251 36-543): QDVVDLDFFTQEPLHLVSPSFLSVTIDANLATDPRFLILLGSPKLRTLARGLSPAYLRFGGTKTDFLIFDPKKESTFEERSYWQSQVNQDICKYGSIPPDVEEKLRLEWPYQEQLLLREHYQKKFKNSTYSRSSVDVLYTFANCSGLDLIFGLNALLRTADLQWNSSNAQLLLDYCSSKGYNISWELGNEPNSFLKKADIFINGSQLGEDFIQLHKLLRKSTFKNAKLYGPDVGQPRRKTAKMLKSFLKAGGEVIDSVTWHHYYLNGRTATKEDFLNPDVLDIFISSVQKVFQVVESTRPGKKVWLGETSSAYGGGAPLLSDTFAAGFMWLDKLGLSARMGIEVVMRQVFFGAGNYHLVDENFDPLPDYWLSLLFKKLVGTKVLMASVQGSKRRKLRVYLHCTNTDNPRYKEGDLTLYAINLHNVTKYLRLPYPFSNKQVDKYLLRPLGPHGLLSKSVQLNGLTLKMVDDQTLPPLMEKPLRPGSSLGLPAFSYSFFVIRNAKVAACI
Description: as §1, with “(Systat). […]” for “(Systat).”

[5] = biological target: T5, HPSE (Homo sapiens, UniProt Q9Y251); test: X-ray crystallography, ligand soaking of HPSE crystals; conditions: crystal soaking
T5 sequence (Q9Y251 36-109 limits assumed): T1 sequence (Q9Y251 36-109 limits assumed)
T5 sequence (Q9Y251 158-543 limits assumed): T1 sequence (Q9Y251 158-543 limits assumed)
Source text: Xray diffraction data were collected at 100 K at beamlines i03 (HPSE-2, HPSE-3, HPSE-4, EcGUSB-1, BpHep-3), i04 (AcGH79-2, BpHep-2) and i04-1 (Apo-AcGH79, AcGH79-1, AcGH79-3) of the Diamond Light Source UK. Reflections were autoprocessed using the XIA2 pipeline. Complexes were solved by directly refining against their unliganded structures where isomorphous, or else solved by molecular replacement with PHASER (search model PDB accessions: 5E98 (HPSE), 3VNY (AcGH79), 3K46 (EcGUSB), 5BWI (BpHep)). […] Ligand coordinates were built using jLigand. Diagrams were generated using PyMOL.
HPSE—Well diffracting crystals of HPSE were obtained by the sitting-drop vapor-diffusion method at 20° C. using a well solution containing 0.1 M MES pH 5.5, 0.1 M MgCl2, 17% (w/v) PEG 3350, and a protein to well solution ratio of 200 nl:500 nl. Crystals typically appeared after 1 week. Inhibitor ligand complexes were obtained by transferring HPSE crystals to drops of well solution supplemented with 25% (v/v) ethylene glycol and 1-5 mM inhibitor. Crystals were incubated with ligand for ˜2-4 h, then directly harvested and flash-cooled in LN2 for data collection.
To better understand the molecular basis of interaction between our inhibitors and their targets, we turned to X-ray crystallography, using ligand soaking to derivatize enzymes in crystallo.

[6] = biological target: T5, HPSE; test: cABPP Assay 1, recombinant HPSE; assay type: biochemical; conditions: 1 h preincubation at 37° C., pH 5.5, 100 nM ABP 7
[7] = biological target: AcGH79 (Acidobacterium capsulatum, UniProt C1F2K5); test: in-gel competitive ABPP, recombinant AcGH79; assay type: biochemical, A. capsulatum; conditions: Cy5-tagged β-D-glucuronidase ABP read-out, at the tested enzyme concentration
Description: as §1, §2

[8] = system: BpHep and AcGH79; assay type: biochemical, B. pseudomallei; A. capsulatum; conditions: cABPP Assay 1

Structure (SMILES) | IC50 [1] | IC50 [2] | inhibitor concentration down to which HPSE signal is abrogated [2] | effect on GUS signals [3] | HPSE inhibition (abrogation of labelling by ABP 7) [6] | also measured
O=C(O)C1C2O[C@H]2C(O)C(O)[C@@H]1O[C@H]1OC(CO)[C@@H](O)C(O)C1O (stereo in doubt) [Compound 13, 4,5-dihydroxy-3-((3,4,5-trihydroxy-6-(hydroxymethyl)tetrahydro-2H-pyran-2-yl)oxy)-7-oxabicyclo[4.1.0]heptane-2-carboxylic acid] | 1000 ± 1000 nM | 5000 ± 1000 nM | 2.5 µM | without altering GUS signals | – | inhibitor concentration down to which rHPSE is inactivated ([1]; in-gel competitive ABPP): 2 µM
CC(=O)NC1[C@@H](O[C@@H]2C(C(=O)O)C3O[C@H]3C(O)[C@H]2O)OC(CO)[C@@H](OCCCCCCCCNC(=O)CCCCC[N+]2=C(/C=C/C=C/C=C3/N(C)c4ccccc4C3(C)C)C(C)(C)c3ccccc32)[C@@H]1O (stereo partly drawn) [Compound 9, 4-O-(2-N-acetyl-2-deoxy-4-O-(8-amino-Cy5-1-octyl)-α-D-glucopyranosyl)-glucurono-cyclophellitol] | – | – | – | – | – | most substantial off-target ([4]; 10 μM ABP concentration): serum albumin; HPSE specificity of labelling ([4]; ABP at 1 μM and 10 μM, lysates of U87, PANC1, SKBR3, MDA-MB-231, HT1080, platelets): markedly improved HPSE specificity compared to both 7 and 8
O=C(O)C1C2O[C@H]2C(O)C(O)[C@@H]1O[C@@H]1CC(O)[C@H](O)C(CO)O1 (stereo partly drawn) [Compound 4, 4-O-(2-deoxy-D-glucopyranosyl)-glucurono-cyclophellitol] | – | – | – | – | inhibited HPSE at nanomolar concentrations | binding mode in HPSE active site cleft [5]: covalent linkages between their pseudo-anomeric carbons and the enzyme nucleophile Glu343
[N-]=[N+]=NCC(=O)NC1C(O)[C@H](O)C(CO)O[C@@H]1O[C@H]1C(O)C(O)[C@@H]2OC2C1C(=O)O (stereo partly drawn) [Compound 6, 4-O-(2-N-azidoacetyl-2-deoxy-D-glucopyranosyl)-glucurono-cyclophellitol] | – | – | – | – | do not inhibit HPSE well | –
O=C(O)C1C2O[C@H]2C(O)C(O)[C@@H]1O[C@H]1CC(CO)[C@@H](O)C(O)C1O (stereo in doubt) [Compound 12, 4,5-dihydroxy-3-((2,3,4-trihydroxy-5-(hydroxymethyl)cyclohexyl)oxy)-7-oxabicyclo[4.1.0]heptane-2-carboxylic acid] | 500 ± 500 nM | 400 ± 200 nM | 2.5 µM | without altering GUS signals | – | IC50 [7]: 1200 ± 300 nM
NC1C(O)[C@H](O)C(CO)O[C@@H]1O[C@H]1C(O)C(O)[C@@H]2OC2C1C(=O)O (stereo partly drawn) [Compound 5, 4-O-(2-amino-2-deoxy-D-glucopyranosyl)-glucurono-cyclophellitol] | – | – | – | – | do not inhibit HPSE well | Inhibition of BpHep and AcGH79 [8]: all compounds apart from 5 showing activity
